Assay results: PubChem BioAssay (NCI)
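Method: 48-hour compound exposure of cells in 96-well plates, five concentrations, linear interpolation of endpoints. The concentration for 50% growth inhibition is given as GI50. TGI marks complete inhibition of growth.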

How the values were obtained:
Test in all cases: NCI anticancer screen, dose series, 48 h
786-0 renal = test system: 786-0 renal
A498 renal = test system: A498 renal
A549 NSCLC = test system: A549 NSCLC
ACHN renal = test system: ACHN renal
BT-549 breast = test system: BT-549 breast
CAKI-1 renal = test system: CAKI-1 renal
CCRF-CEM leukemia = test system: CCRF-CEM leukemia
COLO 205 colon = test system: COLO 205 colon
DU-145 prostate = test system: DU-145 prostate
EKVX NSCLC = test system: EKVX NSCLC
HCC-2998 colon = test system: HCC-2998 colon
HCT-116 colon = test system: HCT-116 colon
HCT-15 colon = test system: HCT-15 colon
HL-60(TB) leukemia = test system: HL-60(TB) leukemia
HOP-62 NSCLC = test system: HOP-62 NSCLC
HOP-92 NSCLC = test system: HOP-92 NSCLC
HS 578T breast = test system: HS 578T breast
HT29 colon = test system: HT29 colon
IGROV1 ovarian = test system: IGROV1 ovarian
K-562 leukemia = test system: K-562 leukemia
KM12 colon = test system: KM12 colon
LOX IMVI melanoma = test system: LOX IMVI melanoma
M14 melanoma = test system: M14 melanoma
MALME-3M melanoma = test system: MALME-3M melanoma
MCF7 breast = test system: MCF7 breast
MDA-MB-231 breast = test system: MDA-MB-231 breast
MDA-MB-435 = test system: MDA-MB-435
MOLT-4 leukemia = test system: MOLT-4 leukemia
NCI-H226 lung = test system: NCI-H226 lung
NCI-H23 lung = test system: NCI-H23 lung
NCI-H460 lung = test system: NCI-H460 lung
NCI-H522 lung = test system: NCI-H522 lung
NCI/ADR-RES ovarian = test system: NCI/ADR-RES ovarian
OVCAR-3 ovarian = test system: OVCAR-3 ovarian
OVCAR-4 ovarian = test system: OVCAR-4 ovarian
OVCAR-5 ovarian = test system: OVCAR-5 ovarian
OVCAR-8 ovarian = test system: OVCAR-8 ovarian
PC-3 prostate = test system: PC-3 prostate
RPMI-8226 leukemia = test system: RPMI-8226 leukemia
RXF 393 renal = test system: RXF 393 renal
SF-268 CNS = test system: SF-268 CNS
SF-295 CNS = test system: SF-295 CNS
SF-539 CNS = test system: SF-539 CNS
SK-MEL-2 melanoma = test system: SK-MEL-2 melanoma
SK-MEL-28 melanoma = test system: SK-MEL-28 melanoma
SK-MEL-5 melanoma = test system: SK-MEL-5 melanoma
SK-OV-3 ovarian = test system: SK-OV-3 ovarian
SN12C renal = test system: SN12C renal
SNB-19 CNS = test system: SNB-19 CNS
SNB-75 CNS = test system: SNB-75 CNS
SR leukemia = test system: SR leukemia
SW-620 colon = test system: SW-620 colon
T-47D breast = test system: T-47D breast
TK-10 renal = test system: TK-10 renal
U251 CNS = test system: U251 CNS
UACC-257 melanoma = test system: UACC-257 melanoma
UACC-62 melanoma = test system: UACC-62 melanoma
UO-31 renal = test system: UO-31 renal

## O[N+]1=CC=CCC1=S.On1ccccc1=S.[Zn]
786-0 renal
  GI50: 931 nM
  TGI: 2290 nM
A498 renal
  GI50: 1510 nM
  TGI: 3060 nM
A549 NSCLC
  GI50: 811 nM
  TGI: 2330 nM
ACHN renal
  GI50: 967 nM
  TGI: 2310 nM
BT-549 breast
  GI50: 1520 nM
  TGI: 3150 nM
CAKI-1 renal
  GI50: 1530 nM
  TGI: 3130 nM
CCRF-CEM leukemia
  GI50: 437 nM
  TGI: 2750 nM
COLO 205 colon
  GI50: 375 nM
  TGI: 951 nM
DU-145 prostate
  GI50: 732 nM
  TGI: 1860 nM
EKVX NSCLC
  GI50: 1360 nM
  TGI: 3000 nM
HCC-2998 colon
  GI50: 896 nM
  TGI: 2370 nM
HCT-116 colon
  GI50: 274 nM
  TGI: 690 nM
HCT-15 colon
  GI50: 1030 nM
  TGI: 3020 nM
HL-60(TB) leukemia
  GI50: 2580 nM
  TGI: 6500 nM
HOP-62 NSCLC
  GI50: 1210 nM
  TGI: 2720 nM
HOP-92 NSCLC
  GI50: 1470 nM
  TGI: 3240 nM
HS 578T breast
  GI50: 2150 nM
  TGI: > 30700 nM
HT29 colon
  GI50: 300 nM
  TGI: 942 nM
IGROV1 ovarian
  GI50: 862 nM
  TGI: 2720 nM
K-562 leukemia
  GI50: 661 nM
  TGI: 6980 nM
KM12 colon
  GI50: 1280 nM
  TGI: 2600 nM
LOX IMVI melanoma
  GI50: 429 nM
  TGI: 912 nM
M14 melanoma
  GI50: 460 nM
  TGI: 1310 nM
MALME-3M melanoma
  GI50: 819 nM
  TGI: 2710 nM
MCF7 breast
  GI50: 532 nM
  TGI: 2100 nM
MDA-MB-231 breast
  GI50: 759 nM
  TGI: 2220 nM
MDA-MB-435
  GI50: 753 nM
  TGI: 2270 nM
MOLT-4 leukemia
  GI50: 614 nM
  TGI: 6760 nM
NCI-H226 lung
  GI50: 1020 nM
  TGI: 3040 nM
NCI-H23 lung
  GI50: 919 nM
  TGI: 2810 nM
NCI-H460 lung
  GI50: 935 nM
  TGI: 2870 nM
NCI-H522 lung
  GI50: 373 nM
  TGI: 985 nM
NCI/ADR-RES ovarian
  GI50: 699 nM
  TGI: 2390 nM
OVCAR-3 ovarian
  GI50: 579 nM
  TGI: 1370 nM
OVCAR-4 ovarian
  GI50: 530 nM
  TGI: 1630 nM
OVCAR-5 ovarian
  GI50: 1450 nM
  TGI: 3040 nM
OVCAR-8 ovarian
  GI50: 399 nM
  TGI: 1830 nM
PC-3 prostate
  GI50: 834 nM
  TGI: 3130 nM
RPMI-8226 leukemia
  GI50: 1390 nM
  TGI: 4050 nM
RXF 393 renal
  GI50: 587 nM
  TGI: 1360 nM
SF-268 CNS
  GI50: 880 nM
  TGI: 2510 nM
SF-295 CNS
  GI50: 924 nM
  TGI: 2720 nM
SF-539 CNS
  GI50: 977 nM
  TGI: 2560 nM
SK-MEL-2 melanoma
  GI50: 1600 nM
  TGI: 3920 nM
SK-MEL-28 melanoma
  GI50: 530 nM
  TGI: 1210 nM
SK-MEL-5 melanoma
  GI50: 1100 nM
  TGI: 2470 nM
SK-OV-3 ovarian
  GI50: 1510 nM
  TGI: 2870 nM
SN12C renal
  GI50: 1000 nM
  TGI: 2530 nM
SNB-19 CNS
  GI50: 1240 nM
  TGI: 2800 nM
SNB-75 CNS
  GI50: 1950 nM
  TGI: 6850 nM
SR leukemia
  GI50: 351 nM
  TGI: > 23000 nM
SW-620 colon
  GI50: 899 nM
  TGI: 2640 nM
T-47D breast
  GI50: 1430 nM
  TGI: 3130 nM
TK-10 renal
  GI50: 1090 nM
  TGI: 2470 nM
U251 CNS
  GI50: 602 nM
  TGI: 1520 nM
UACC-257 melanoma
  GI50: 529 nM
  TGI: 1290 nM
UACC-62 melanoma
  GI50: 755 nM
  TGI: 2230 nM
UO-31 renal
  GI50: 664 nM
  TGI: 1970 nM
